Series [1] is classed as physicochemical. Conditions: SGF with pepsin, pH 1.5, 37° C., 0.5 mM.
The next series addresses SERT (Homo sapiens (Human), UniProt P31645). In kind it is cell-based. Conditions: stable 5HTT cells, 30 minutes at 37° C.
The nature of series [2]: Pharmacokinetics of 043 and 001 in mice after oral 043 (75 mg/kg). In kind it is in vivo, male C57BL/6 mice. The protocol: Total twelve male mice were used in this study. […] The formulation vehicle used was normal saline.
The plasma and brain concentration-time data of 043 and 001 was used for the pharmacokinetic analysis.
The extraction procedure for plasma/brain samples and the spiked plasma/brain calibration standards were identical:
A 25 μL of study sample plasma/brain (dilution applied to some samples) or spiked plasma calibration standard was added to individual pre-labeled micro-centrifuge tubes followed by 100 μL of internal standard prepared in acetonitrile (Glipizide-500 ng/mL) was added except for blank, where 100 μL of acetonitrile was added. Samples were vortexed for 5 minutes. Samples were centrifuged for 10 minutes at a speed of 4000 rpm at 4° C. Following centrifugation, 100 μL of clear supernatant was transferred in 96 well plates and analyzed using LC-MS/MS.

For series [3] the following is noted: 5 μM.
For series [4] the following is noted: in vivo; for Plasma levels of 001: mouse, iv, 2 mg/kg. The protocol: Male C57/BL6 mice were used to evaluate each compound, with n=3 mice/time point.
Animals were administered through intravenous route with solution formulation at 2 mg/kg dose. […] Following blood collection, immediately, animals were sacrificed, and vena-cava was cut open and blood was drained. […] Brain samples were collected from set of three mice at each time point. […] Brain samples were homogenized using 2 volumes of ice-cold PBS (pH-7.4) of brain weight. […] Concentrations of compound (or compound and metabolite) in mouse plasma and brain samples were determined by fit for purpose LC-MS/MS method.

The conditions of series [5]: 5 μM. This is another data set of the same source.
The format of series [6] is physicochemical. As to conditions: DI water, 25° C., 0.5 mM.
The procedure of series [7]:
Brain samples were homogenized with PBS (W/V, 1:3). Plasma/brain samples were mixed with acetonitrile containing internal standard. The samples were vortexed then centrifuged at 4 degrees Celsius for 15 minutes. The supernatant was diluted with water (1:2 V/V) and analyzed by LC/MS/MS for quantitative analysis. […] Area under the curve (AUC) was calculated and divided by dose to account for molecular weight difference of prodrug and metabolite (AUC/D).

[8] abbreviates: analyte = label, single oral administration of 043, 75 mg/kg, male C57BL/6 mice.
The mark [9] stands for this setting: brain, analyte = label, single oral administration of 043, 75 mg/kg, male C57BL/6 mice.
The mark [10] stands for this setting: plasma, analyte = label, single oral administration of 043, 75 mg/kg, male C57BL/6 mice.

The record followed here is patent publication US20250051277A1, “DELIVERY OF THERAPEUTIC ALKALOID COMPOUNDS” (Sensorium Therapeutics, Inc., priority 2021, published 2025).

Read-outs that look alike come from different tables or passages of the source.

As a reminder, the IC50 is the concentration that inhibits the measured activity by half. A low value points to inhibition by little substance. Broadly, the Cmax is the highest concentration seen after dosing. The Tmax is the time from dosing to the highest level.

For `COc1ccc([C@]23CCN(C)[C@H]2CC2(CC3)SCCS2)cc1OC` [Compound 045, (3′aS,7′aS)-3′a-(3,4-dimethoxyphenyl)-1′-methyl-spiro[1,3-dithiolane-2,6′-2,3,4,5,7,7a-hexahydroindole]], the “Condition 1 Conversion (%)” value in series [1] (time 1 min), in series [1] (time 5 min), in series [1] (time 30 min), in series [1] (time 1 h), in series [1] (time 4 h) and in series [1] (time 24 h) was 0% throughout. The compound also displayed a 50% inhibitory concentration (IC50) against SERT above 1000 nM.

As for `COc1ccc([C@]23CCN(C)[C@H]2CC2(CC3)OCCO2)cc1OC` [Compound 043], the “Condition 1 Conversion (%)” value in series [1] (time 1 min), in series [1] (time 5 min), in series [1] (time 30 min), in series [1] (time 1 h), in series [1] (time 4 h) and in series [1] (time 24 h) was 0% each time. Moreover, the half-inhibitory concentration (IC50) on SERT is below 50 nM. Also, in series [2] (75 mg/kg po in mice), the “conversion of prodrug to 001 in vivo” value is reported as “efficiently converts to 001 in vivo”. The “Brain concentrations quantifiable up to” value in series [2] (setting [8]) was found to be 4 h. In addition, in series [2] (setting [8]), the “brain exposure-Kp” value is given as below 1. For the same compound, the AUClast in series [2] (setting [9]) was found to be 1787.23 ng·h/mL; in series [2] (setting [10]), 2555.07 ng·h/mL. Further, the Cmax in series [2] (setting [9]) is 2684.81 ng/mL; in series [2] (setting [10]), 3392.53 ng/mL. Further, the time to peak (Tmax) in series [2] (setting [9]) and in series [2] (setting [10]) was 30 min throughout.

As for `COc1ccc(C23CCN(C)C2CC2(CC3)OCCO2)cc1OC` (centres unmarked) [Compound 044], the “Condition 1 Conversion (%)” value in series [1] (time 1 min), in series [1] (time 5 min), in series [1] (time 30 min), in series [1] (time 1 h), in series [1] (time 4 h) and in series [1] (time 24 h) was 0% throughout. The compound further showed a concentration for half-maximal inhibition (IC50) against SERT above 1000 nM.

`COc1ccc([C@@]23CCC(OC(=O)CC(C)C)=C[C@@H]2N(C)CC3)cc1OC` [Compound 334, [(3aS,7aS)-3a-(3,4-dimethoxyphenyl)-1-methyl-3,4,5,7a-tetrahydro-2H-indol-6-yl]3-methylbutanoate]: the “Condition 1 Conversion (%)” value in series [1] (time 1 min), in series [1] (time 5 min), in series [1] (time 30 min), in series [1] (time 1 h), in series [1] (time 4 h) and in series [1] (time 24 h) was 0% in each case. Also, the “Human Plasma Compound 001 (%)” value turned out to be 63.6% in series [3] (15 min); 63.7% in series [3] (30 min); 65.4% in series [3] (60 min); 65.1% in series [3] (120 min); 63.8% in series [3] (240 min). Also, the “quantifiable levels of 001 in brain up to” value in series [4] (male, C57BL/6, mouse) stood at 2 h. In addition, the “quantifiable levels of 001 in plasma up to” value in series [4] (male, C57BL/6, mouse) came out at 60 min. The “Plasma levels of 001” value in series [4] was “not detectable”. Besides, the “Mouse Plasma Compound 001 (%)” value stood at 73.1% in series [5] (15 min); 70.9% in series [5] (30 min); 68.8% in series [5] (60 min); 70.0% in series [5] (120 min); 68.5% in series [5] (240 min). The “Condition 2 Conversion (%)” value in series [6] (time 1 min), in series [6] (time 5 min), in series [6] (time 30 min), in series [6] (time 1 h), in series [6] (time 4 h) and in series [6] (time 24 h) was 0% throughout.

For the compound `CCC(=O)OC1=C[C@@H]2N(C)CC[C@]2(c2ccc(OC)c(OC)c2)CC1` [Compound 317, [(3aS,7aS)-3a-(3,4-dimethoxyphenyl)-1-methyl-3,4,5,7a-tetrahydro-2H-indol-6-yl]propanoate], the “Condition 1 Conversion (%)” value in series [1] (time 1 min), in series [1] (time 5 min), in series [1] (time 30 min), in series [1] (time 1 h), in series [1] (time 4 h) and in series [1] (time 24 h) was 0% throughout. The “quantifiable levels of 001 in plasma up to” value in series [4] (male, C57BL/6, mouse) came out at 60 min. The “Plasma levels of 001” value in series [4] was “not detectable”. In addition, the “Condition 2 Conversion (%)” value in series [6] (time 1 min), in series [6] (time 5 min), in series [6] (time 30 min), in series [6] (time 1 h), in series [6] (time 4 h) and in series [6] (time 24 h) was 0% each time.

`CCC(C)CC(=O)OC1=C[C@@H]2N(C)CC[C@]2(c2ccc(OC)c(OC)c2)CC1` (stereo partly drawn) [Compound 316, [(3aS,7aS)-3a-(3,4-dimethoxyphenyl)-1-methyl-3,4,5,7a-tetrahydro-2H-indol-6-yl]3-methyl pentanoate]: in series [7] (2 mg/kg iv in rat), the “conversion of prodrug to 001 in vivo” value is “converts to 001 in vivo in rat”. In addition, in series [7] (rat, in vivo), the “001 brain levels quantifiable up to” value turned out to be 3 h.

On to `COc1ccc([C@@]23CCN(C)[C@@H]2CC2(CC3)SCCS2)cc1OC` [Compound 046, (3′aR,7′aR)-3′a-(3,4-dimethoxyphenyl)-1′-methyl-spiro[1,3-dithiolane-2,6′-2,3,4,5,7,7a-hexahydroindole]], for which the “Condition 1 Conversion (%)” value in series [1] (time 1 min), in series [1] (time 5 min), in series [1] (time 30 min), in series [1] (time 1 h), in series [1] (time 4 h) and in series [1] (time 24 h) was 0% throughout. The compound further registered a half-maximal inhibitory concentration (IC50) against SERT of 100 to 500 nM.

Consider `CO/N=C1/CC[C@@]2(c3ccc(OC)c(OC)c3)CCN(C)[C@H]2C1` [Compound 035, (Z, 3aS,7aS)-3a-(3,4-dimethoxyphenyl)-N-methoxy-1-methyl-2,3,4,5,7,7a-hexahydroindol-6-imine], for which the “Condition 1 Conversion (%)” value in series [1] (time 1 min) worked out at 0%; in series [1] (time 5 min), 0%; in series [1] (time 30 min), 5.4%; in series [1] (time 1 h), 13.1%; in series [1] (time 4 h), 35.2%; in series [1] (time 24 h) it was 38.9%. On SERT, the IC50 was below 50 nM.

On to `CO/N=C1\CC[C@@]2(c3ccc(OC)c(OC)c3)CCN(C)[C@H]2C1` [Compound 038, (E,3aS,7aS)-3a-(3,4-dimethoxyphenyl)-N-methoxy-1-methyl-2,3,4,5,7,7a-hexahydroindol-6-imine], for which the “Condition 1 Conversion (%)” value is on record as 0% in series [1] (time 1 min); 0% in series [1] (time 5 min); 1.3% in series [1] (time 30 min); 11.9% in series [1] (time 1 h); 31.3% in series [1] (time 4 h); 49.9% in series [1] (time 24 h). The compound also came in with an IC50 against SERT below 50 nM.
